Reference: US9890185B2, “Urea derivatives useful as kinase inhibitors” (Respivert Limited, priority 2013, dated 2018)
Like-named read-outs stand apart in the source and are kept apart here.

Legend:
[1] = test system: PBMCs; test: LPS-induced IL-8 release in PBMC cells (assay b); assay type: cell-based, human; details: LPS-stimulated PBMCs, read-out: IC50 Values for Inhibition of Cytokine Release, PBMCs IL-8
Protocol: Peripheral blood mononuclear cells (PBMCs) from healthy subjects are separated from whole blood using a density gradient (Lymphoprep, Axis-Shield Healthcare). The PBMCs are seeded in 96 well plates and treated with compounds at the desired concentration for 2 hours before addition of 1 ng/mL LPS (Escherichia Coli 0111:B4 from Sigma Aldrich) for 24 hours under normal tissue culture conditions (37° C., 5% CO2). The supernatant is harvested for determination of IL-8 and TNFα concentrations by sandwich ELISA (Duo-set, R&D systems) and read on the fluorescence microplate reader (Varioskan® Flash, ThermoFisher Scientific). The concentration at 50% inhibition (IC50) of IL-8 and TNFα production is calculated from the dose response curve.

[2] = target: GSK 3α (Homo sapiens (Human), UniProt P49840); test: GSK 3α enzyme inhibition (FRET, Z-LYTE, Method 2); assay type: biochemical; details: read-out: IC50 Values for Enzyme Inhibition, GSK3α
Protocol: The enzyme inhibitory activities of compounds disclosed herein are determined by FRET using synthetic peptides labelled with both donor and acceptor fluorophores (Z-LYTE, Invitrogen Ltd., Paisley, UK).
The following two assay variants can be used for determination of GSK 3α inhibition.
The inhibitory activities of compounds of the invention against the GSK 3α enzyme isoform (Invitrogen), are evaluated by determining the level of activation/phosphorylation of the target peptide. The GSK3-α protein (500 ng/mL, 2.5 μL) is mixed with the test compound (2.5 μL at either 4 μg/mL, 0.4 μg/mL, 0.04 μg/mL, or 0.004 μg/mL) for 2 hr at RT. The FRET peptide (8 μM, 2.5 μL), which is a phosphorylation target for GSK3α, and ATP (40 μM, 2.5 μL) are then added to the enzyme/compound mixture and the resulting mixture incubated for 1 hr. Development reagent (protease, 5 μL) is added for 1 hr prior to detection in a fluorescence microplate reader (Varioskan® Flash, ThermoFisher Scientific).
In all cases, the site-specific protease cleaves non-phosphorylated peptide only and eliminates the FRET signal. Phosphorylation levels of each reaction are calculated using the ratio of coumarin emission (donor) over fluorescein emission (acceptor), for which high ratios indicate high phosphorylation and low ratios indicate low phosphorylation levels. The percentage inhibition of each reaction is calculated relative to non-inhibited control and the 50% inhibitory concentration (IC50 value) is then calculated from the concentration-response curve.
This method follows the same steps as Method 1 above, but utilises a shorter period of mixing of the test compound (105 minutes instead of 2 hours) with the GSK3-α protein.

Chain of GSK 3α (P49840 whole entry): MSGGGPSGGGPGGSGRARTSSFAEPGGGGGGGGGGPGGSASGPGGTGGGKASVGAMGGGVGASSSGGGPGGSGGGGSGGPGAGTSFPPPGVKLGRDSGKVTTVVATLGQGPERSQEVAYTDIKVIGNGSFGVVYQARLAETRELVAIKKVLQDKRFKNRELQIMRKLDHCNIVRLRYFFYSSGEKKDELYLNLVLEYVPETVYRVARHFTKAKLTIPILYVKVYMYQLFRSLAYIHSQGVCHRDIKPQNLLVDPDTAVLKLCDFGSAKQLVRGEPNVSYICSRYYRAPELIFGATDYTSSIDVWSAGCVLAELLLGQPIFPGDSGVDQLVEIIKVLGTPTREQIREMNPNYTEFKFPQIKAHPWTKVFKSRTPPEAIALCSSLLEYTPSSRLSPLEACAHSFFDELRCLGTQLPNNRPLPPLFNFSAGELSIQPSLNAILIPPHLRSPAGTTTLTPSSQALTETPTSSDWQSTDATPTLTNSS

COc1ccccc1Nc1nccc(Oc2ccc(NC(=O)Nc3cc(C(C)(C)C)cc(P(C)(C)=O)c3OC)c3ccccc23)n1 [15(f), 1-(5-(tert-butyl)-3-(dimethylphosphoryl)-2-methoxyphenyl)-3-(4-((2-((2-methoxy-phenyl)amino)pyrimidin-4-yl)oxy)naphthalen-1-yl)urea]
IC50 [1]: 0.0262 µM | IC50 [2]: 3.1 µM

COc1ccc(Nc2nccc(Oc3ccc(NC(=O)Nc4cc(C(C)(C)C)cc(P(C)(C)=O)c4OC)c4ccccc34)n2)cc1 [15(h), 1-(5-(tert-butyl)-3-(dimethylphosphoryl)-2-methoxyphenyl)-3-(4-((2-((4-methoxy-phenyl)amino)pyrimidin-4-yl)oxy)naphthalen-1-yl)urea]
IC50 ([1]; Homo sapiens, PBMC): 0.0046 µM | IC50 [2]: 0.779 µM

COc1ccc(Nc2nccc(Oc3ccc(NC(=O)Nc4cc(C(C)(C)C)cc(P(C)(C)=O)c4OC)c4ccccc34)n2)cc1OC [15(i), 1-(5-(tert-butyl)-3-(dimethylphosphoryl)-2-methoxyphenyl)-3-(4-((2-((3,4-dimethoxyphenyl)amino)pyrimidin-4-yl)oxy)naphthalen-1-yl)urea]
IC50 ([1]; Homo sapiens, PBMC): 0.0015 µM | IC50 [2]: 0.359 µM

COc1c(NC(=O)Nc2ccc(Oc3ccnc(Nc4ccccc4)n3)c3ccccc23)cc(C(C)(C)C)cc1[S+](C)[O-] (centres unmarked) [15(k), 1-(5-(tert-butyl)-2-methoxy-3-(methylsulfinyl)phenyl)-3-(4-((2-(phenylamino)pyrimidin-4-yl)oxy)naphthalen-1-yl)urea]
IC50 ([1]; Homo sapiens, PBMC): 0.0056 µM | IC50 [2]: 1.17 µM

COc1c(NC(=O)Nc2ccc(Oc3ccnc(Nc4ccccc4)n3)c3ccccc23)cc(C(C)(C)C)cc1S(C)(=O)=O [15(l), 1-(5-(tert-butyl)-2-methoxy-3-(methylsulfonyl)phenyl)-3-(4-((2-(phenylamino)pyrimidin-4-yl)oxy)naphthalen-1-yl)urea]
IC50 ([1]; Homo sapiens, PBMC): 0.0175 µM | IC50 [2]: 8.22 µM

COc1c(CS(C)(=O)=O)cc(C(C)(C)C)cc1NC(=O)Nc1ccc(Oc2ccnc(Nc3ccccc3)n2)c2ccccc12 [15(n), 1-(5-(tert-butyl)-2-methoxy-3-((methylsulfonyl)methyl)phenyl)-3-(4-((2-(phenylamino)-pyrimidin-4-yl)oxy)naphthalen-1-yl)urea]
IC50 ([1]; Homo sapiens, PBMC): 0.0135 µM | IC50 [2]: 1.64 µM

COc1c(NC(=O)Nc2ccc(Oc3ccnc(Nc4ccccn4)n3)c3ccccc23)cc(C(C)(C)C)cc1P(C)(C)=O [15(o), 1-(5-(tert-butyl)-3-(dimethylphosphoryl)-2-methoxyphenyl)-3-(4-((2-(pyridin-2-ylamino)pyrimidin-4-yl)oxy)naphthalen-1-yl)urea]
IC50 ([1]; Homo sapiens, PBMC): 0.0204 µM | IC50 [2]: 5.8 µM

COc1c(NC(=O)Nc2ccc(Oc3ccnc(Nc4ccccc4)n3)c3ccccc23)cc(C(C)(C)C)cc1C(=O)NCCN1CCOCC1 [15(p), 5-(tert-butyl)-2-methoxy-N-(2-morpholinoethyl)-3-(3-(4-((2-(phenylamino)pyrimidin-4-yl)oxy)naphthalen-1-yl)ureido)benzamide]
IC50 ([1]; Homo sapiens, PBMC): 0.0094 µM | IC50 [2]: 1.95 µM

COc1c(NC(=O)Nc2ccc(Oc3ccnc(Nc4cncnc4)n3)c3ccccc23)cc(C(C)(C)C)cc1P(C)(C)=O [15(r), 1-(5-(tert-butyl)-3-(dimethylphosphoryl)-2-methoxyphenyl)-3-(4-((2-(pyrimidin-5-ylamino)pyrimidin-4-yl)oxy)naphthalen-1-yl)urea]
IC50 ([1]; Homo sapiens, PBMC): 0.0048 µM | IC50 [2]: 0.188 µM

COc1c(NC(=O)Nc2ccc(Oc3ccnc(Nc4cnn(C)c4)n3)c3ccccc23)cc(C(C)(C)C)cc1P(C)(C)=O [15(s), 1-(5-(tert-butyl)-3-(dimethylphosphoryl)-2-methoxyphenyl)-3-(4-((2-((1-methyl-1H-pyrazol-4-yl)amino)pyrimidin-4-yl)oxy)naphthalen-1-yl)urea]
IC50 ([1]; Homo sapiens, PBMC): 0.0014 µM | IC50 [2]: 0.239 µM

COc1c(NC(=O)Nc2ccc(Oc3ccnc(Nc4cccc(OS(C)(=O)=O)c4)n3)c3ccccc23)cc(C(C)(C)C)cc1P(C)(C)=O [15(t), 3-((4-((4-(3-(5-(tert-butyl)-3-(dimethylphosphoryl)-2-methoxyphenyl)ureido)-naphthalen-1-yl)oxy)pyrimidin-24)amino)phenyl methanesulfonate]
IC50 ([1]; Homo sapiens, PBMC): 0.0005 µM | IC50 [2]: 0.283 µM

COc1c(NC(=O)Nc2ccc(Oc3ccnc(Nc4ccccc4)n3)c3ccccc23)cc(C(C)(C)C)cc1C(=O)NCCN1CCCC1 [15(u), 5-(tert-butyl)-2-methoxy-3-(3-(4-((2-(phenylamino)pyrimidin-4-yl)oxy)naphthalen-1-yl)ureido)-N-(2-(pyrrolidin-1-yl)ethyl)benzamide]
IC50 ([1]; Homo sapiens, PBMC): 0.0079 µM | IC50 [2]: 3.06 µM

COc1c(NC(=O)Nc2ccc(Oc3ccnc(Nc4ccc5c(c4)NC(=O)C5)n3)c3ccccc23)cc(C(C)(C)C)cc1P(C)(C)=O [15(v), 1-(5-(tert-butyl)-3-(dimethylphosphoryl)-2-methoxyphenyl)-3-(4-((2-((2-oxoindolin-6-yl)amino)pyrimidin-4-yl)oxy)naphthalen-1-yl)urea]
IC50 ([1]; Homo sapiens, PBMC): 0.0028 µM | IC50 [2]: 0.302 µM

COc1c(NC(=O)Nc2ccc(Oc3ccnc(Nc4ccc5c(c4)OCCO5)n3)c3ccccc23)cc(C(C)(C)C)cc1P(C)(C)=O [15(w), 1-(5-(tert-butyl)-3-(dimethylphosphoryl)-2-methoxyphenyl)-3-(4-((2-((2,3-dihydrobenzo[b][1,4]dioxin-6-yl)amino)pyrimidin-4-yl)oxy)naphthalen-1-yl)urea]
IC50 ([1]; Homo sapiens, PBMC): 0.0105 µM | IC50 [2]: 1.67 µM

COc1c(NC(=O)Nc2ccc(Oc3ccnc(Nc4ccc5c(c4)CS(=O)(=O)C5)n3)c3ccccc23)cc(C(C)(C)C)cc1P(C)(C)=O [15(y), 1-(5-(tert-butyl)-3-(dimethylphosphoryl)-2-methoxyphenyl)-3-(4-((2-((2,2-dioxido-1,3-dihydrobenzo[c]thiophen-5-yl)amino)pyrimidin-4-yl)oxy)naphthalen-1-yl)urea]
IC50 ([1]; Homo sapiens, PBMC): 0.0009 µM | IC50 [2]: 0.194 µM

COc1c(NC(=O)Nc2ccc(Oc3ccnc(Nc4cnoc4)n3)c3ccccc23)cc(C(C)(C)C)cc1P(C)(C)=O [15(z), 1-(5-(tert-butyl)-3-(dimethylphosphoryl)-2-methoxyphenyl)-3-(4-((2-(isoxazol-4-ylamino)pyrimidin-4-yl)oxy)naphthalen-1-yl)urea]
IC50 ([1]; Homo sapiens, PBMC): 0.0361 µM | IC50 [2]: 1.5 µM

COc1c(CN(C)C(C)=O)cc(C(C)(C)C)cc1NC(=O)Nc1ccc(Oc2ccnc(Nc3ccccc3)c2)c2ccccc12 [38(aa), N-(5-(tert-Butyl)-2-methoxy-3-(3-(4-((2-(phenylamino)pyridin-4-yl)oxy)naphthalen-1-yl)ureido)benzyl)-N-methylacetamide]
IC50 ([1]; Homo sapiens, PBMC): 0.0025 µM | IC50 [2]: 8.29 µM

COc1cc(Nc2cc(Oc3ccc(NC(=O)Nc4cc(C(C)(C)C)cc(CNC(C)=O)c4OC)c4ccccc34)ccn2)cc(C(N)=O)c1 [38(ac), 3-((4-((4-(3-(3-(Acetamidomethyl)-5-(tert-butyl)-2-methoxyphenyl)ureido)naphthalen-1-yl)oxy)pyridin-2-yl)amino)-5-methoxybenzamide]
IC50 ([1]; Homo sapiens, PBMC): 0.0004 µM | IC50 [2]: 0.834 µM

COc1cc(Nc2cc(Oc3ccc(NC(=O)Nc4cc(C(C)(C)C)cc(CC(N)=O)c4OC)c4ccccc34)ccn2)cc(P(C)(C)=O)c1 [38(ae), 2-(5-(tert-Butyl)-3-(3-(4-((2-((3-(dimethylphosphoryl)-5-methoxyphenyl)amino)pyridin-4-yl)oxy)naphthalen-1-yl)ureido)-2-methoxyphenyl)acetamide]
IC50 ([1]; Homo sapiens, PBMC): 0.0012 µM | IC50 [2]: 0.8 µM
